Test results reported in PMC8557901 (Microbiology Spectrum, 2021).
Structures can show the parent of a compound that is named as a salt.

Key:
[1] = Cytotoxicity on HepG2 cell line (MTT); type: cell-based; details: human, HepG2 cells
Procedure: The evaluation of the cytotoxicity of the tested molecules on the HepG2 cell line was performed according to the method of Mosman ([42]) with slight modifications. […] Triplicate assays were performed for each sample. Each well was then examined under a microscope to detect possible precipitate formation before the medium was aspirated from the wells. An amount of 100 μl of MTT solution (0.5 mg/ml in medium without FBS) was then added to each well. […] After this time, the MTT solution was removed and DMSO (100 μl) was added to dissolve the resulting blue formazan crystals. Plates were shaken vigorously (700 rpm) for 10 min. The absorbance was measured at 570 nm with 630 nm as the reference wavelength using a Tecan Infinite F-200 microplate reader. DMSO was used as a blank and doxorubicin as a positive control. Cell viability was calculated as the percentage compared to the control (cells incubated without compound). […] CC50 values represent the mean values calculated from three independent experiments.

[2] = system: P. falciparum strain K1 in RBC; assay: In vitro chemosensitivity assay, blood stage P. falciparum K1 (SYBR green I); type: cell-based; details: Plasmodium falciparum, K1; erythrocytic stage, 72 h; read-out: EC50 (μM) for P. falciparum strain K1 in RBC
Procedure: Maintenance in continuous culture was done as described previously by Trager and Jensen ([46]). Cultures were maintained in fresh A+ human erythrocytes (EFS [French Blood Bank]) at 2.5% hematocrit in complete medium (RPMI 1640 with 25 mM HEPES, 25 mM NaHCO3, 10% A+ human serum) at 37°C under a reduced-O2 atmosphere (gas mixture of 10% O2, 5% CO2, and 85% N2). Parasitemia was maintained daily between 1% and 3%. The P. falciparum drug susceptibility test was carried out by comparing quantities of DNA in treated and control cultures of parasites in human erythrocytes according to a SYBR green I fluorescence-based method ([50]) using a 96-well fluorescence plate reader. Compounds, previously dissolved in DMSO (final concentration, less than 0.5% vol/vol), were incubated in a total assay volume of 200 μl of synchronized culture suspension (2% hematocrit and 0.4% parasitemia) for 72 h in a humidified atmosphere (85% N2, 10% O2, and 5% CO2) at 37°C in 96-well flat-bottom plates. Duplicate assays were performed for each sample. After incubation, plates were frozen at −20°C for 24 h. Then, the frozen plates were thawed for 1 h at 37°C. Fifteen microliters of each sample was transferred to 96-well flat-bottom black plates (Greiner Bio-one) already containing 15 μl of the SYBR green I lysis buffer (2× SYBR green I, 20 mM Tris base, pH 7.5, 20 mM EDTA, 0.008% [wt/vol] saponin, 0.08% [wt/vol] Triton X-100). […] Plates were incubated for 15 min at 37°C and then read on a Tecan Infinite F-200 spectrophotometer with excitation and emission wavelengths at 485 and 535 nm, respectively. […] EC50K1 values represent the mean values calculated from three independent experiments.

[3] = system: P. falciparum liver-stage parasites in human primary hepatocytes; assay: In vitro liver-stage development, P. falciparum in human primary hepatocytes; type: cell-based, Plasmodium falciparum
Excerpt: (§1) Primary human hepatocytes were isolated from liver segments obtained from adult patients undergoing partial hepatectomy (Service de Chirurgie Digestive, Hépato-Bilio Pancréatique, Hôpital Pitié Salpêtrière, Paris, France). Primary simian hepatocytes were isolated from liver segments collected from healthy Macaca fascicularis monkeys from CEA, Fontenay aux Roses, France. All hepatocytes were obtained using collagenase perfusion as previously described ([40]). […] Primary murine hepatocytes were isolated from liver segments collected from BALB/c mice. Human and murine hepatocytes were used directly after their isolation. Cells were seeded in 96-well plates (Falcon; Becton Dickinson Labware Europe, France) coated with collagen I (BD Bioscience, USA) at a density of 80,000 cells per well. […] For human hepatocytes, the complete medium was supplemented with 2% dimethyl sulfoxide (DMSO; Sigma-Aldrich, USA) before infection to preserve their differentiation.
(§2) On the day of infection, 3 · 10^4 sporozoites of P. falciparum, P. yoelii, and P. cynomolgi were added to their respective host cell cultures (human, murine, and simian). The infected culture plates were centrifuged for 10 min at 900 × g, allowing fast parasite sedimentation, and further incubated with serial dilutions of M1. Culture medium containing the appropriate drug concentration was refreshed daily, and cells were fixed at 48 h postinfection (p.i.) for infections with P. yoelii, 6 days p.i. for P. falciparum, or 8 days p.i. for P. cynomolgi. For the in vitro sporozoite invasion experiments, P. falciparum sporozoites were preincubated with 1, 10, and 100 μM M1 for 1 h at room temperature before hepatocyte infections. Three hours later, after sporozoite penetration into hepatocytes, cultures were washed and then further incubated with or without the presence of the drug during 6 days. DMSO was used as a negative control.
(§3) The number, size, and shape of the parasites were determined using a CellInsight high-content screening platform equipped with Studio HCS software (ThermoFisher Scientific). […] Host cell and parasite nuclei were labeled with DAPI (4′,6-diamidino-2-phenylindole). […] The custom script used for counting and measuring parasites first required identification of the objects based on a fluorescence intensity threshold. The object identity was then further validated based on size and morphological (shape) criteria. The presence of DAPI-associated fluorescence in the selected objects allowed their final selection and the rejection of false positives. […] The parasitic size reduction was calculated on the average object area using the total surface area of each selected object (μm^2).

[4] = system: P. yoelii in HepG2-CD81 cells; assay: Hepatic stage of P. yoelii in HepG2-CD81 cells; type: cell-based; details: Plasmodium yoelii; hepatic schizonts
Procedure: Hepatocytes were seeded into collagen-coated black 96-well plates and maintained at 37°C in 5% CO2 in complete medium. […] The infected culture plates were centrifuged for 10 min at 900 × g, allowing fast parasite sedimentation, and further incubated with serial dilutions of M1. […] DMSO was used as a negative control. The number, size, and shape of the parasites were determined using a CellInsight high-content screening platform equipped with Studio HCS software (ThermoFisher Scientific). The parasite immunostaining was done using an […]70 antibody raised in mice and a secondary anti-mouse antibody coupled to Alexa Fluor 488 ([43]). […] Thirty-seven images, representing more than 95% of the total bottom surface area of a culture well in 96-well plates, were captured for analysis. The custom script used for counting and measuring parasites first required identification of the objects based on a fluorescence intensity threshold. The object identity was then further validated based on size and morphological (shape) criteria. The presence of DAPI-associated fluorescence in the selected objects allowed their final selection and the rejection of false positives. […] The parasitic size reduction was calculated on the average object area using the total surface area of each selected object (μm^2).

[5] = system: P. yoelii liver-stage parasites in murine primary hepatocytes; assay: In vitro liver-stage development, P. yoelii in murine primary hepatocytes; type: cell-based, Plasmodium yoelii
Excerpt: P. yoelii 230-GFP-Luc sporozoites are mutant parasites expressing a green fluorescent protein (GFP)-luciferase cassette generated by the gene out marker out (GOMO) strategy ([39]).
as §1, §2, §3

[6] = system: P. falciparum sporozoites invading primary human hepatocytes; assay: Hepatocyte invasion by preincubated P. falciparum sporozoites; details: reference compound; all concentrations tested
Procedure: as §2, §3

[7] = system: P. yoelii (GFP-luc strain); assay: In vivo liver-stage assay in mice infected with P. yoelii sporozoites; parameters: species or system BALB/c mice; details: 50 mg/kg; blood smears days 3 and 6
Procedure: Five mice per treatment group were used. Experimental groups were treated with 50 and 100 mg/kg of M1 intraperitoneally (i.p.). Untreated infected mice and noninfected mice (infection controls), as well as primaquine-treated (50 mg/kg) mice (control drug), were also included. The drugs were administered on days −1, 0, and +1, and mice were challenged on day zero by retroorbital injection of P. yoelii (GFP-luc strain) sporozoites (10,000 per mouse). In vivo bioluminescence imaging was performed 44 h postinfection on day 2, to assess liver-stage development. When parasites were detected in the liver, treatment was continued until day 5 and in vivo imaging was performed on days 3 and 6, to evaluate a prepatent period for the blood-stage parasites in mice after the sporozoite inoculation. In vivo imaging and blood smears were performed to monitor blood-stage development using methods described previously ([45]). This experiment was performed twice.
IVIS Spectrum (Caliper Life Science, Hanover, MD) was used to capture bioluminescence signals. Prior to analysis, the mice were injected i.p. with D-luciferin (100 mg/kg), anesthetized with isoflurane, and imaged 10 min postinjection. Images were analyzed using the Living Image 3.0 software (Caliper Life Sciences, Hanover, MD).
In order to study the in vivo efficacy of M1 without any hepatic CYP metabolism, we conducted an experiment using 1-aminobenzotriazole (ABT), a nonselective inhibitor of cytochrome P450 enzymes ([34], [35]). ABT was administered to mice i.p. 1 h before each treatment with 50 mg/kg gamhepathiopine for 3 days starting from the day before sporozoite inoculation.

[8] = system: P. cynomolgi liver-stage parasites in simian primary hepatocytes; assay: In vitro liver-stage development, P. cynomolgi in simian primary hepatocytes; type: cell-based, Plasmodium cynomolgi
Excerpt: as §1, §2, §3

Row | Structure (SMILES) | EC50 [2] | EC50 [4] | melting point | CC50 at 72 h [1] | also measured
1 | C[C@H]1c2cccc(O)c2C(=O)C2=C(O)[C@]3(O)C(=O)C(C(N)=O)=C(O)[C@@H](N(C)C)[C@@H]3[C@@H](O)[C@@H]21 [Doxycycline, reference compound] | 6 µM |  |  | 20 µM | 
2 | COc1cc(NC(C)CCCN)c2ncccc2c1 (stereo not shown) [Primaquine, reference compound] |  | 3.6 µM |  |  | EC50 ([3]; Plasmodium falciparum, Hepatocyte, P. falciparum in human primary hepatocytes (HH), mean ± SEM of triplicate experiments, read-out: EC50 against liver-stage parasites): 600 ± 60 nM; SI (selectivity index) ([3]; hepatocyte CC50/EC50, P. falciparum (HH)): 66; Size reduction at 10 μM (%) ([3]; parasite (schizont) size, 10 μM, P. falciparum (HH)): 100%; EC50 ([5]; Plasmodium yoelii, Hepatocyte, read-out: EC50 against liver-stage parasites): 640 ± 100 nM; SI (selectivity index) ([5]; hepatocyte CC50/EC50, P. yoelii (MH)): 110; percentage of inhibition of hepatocyte invasion [6]: 100%; blood-stage parasitemia after sporozoite infection [7]: remained clear of parasitemia; EC50 ([8]; Plasmodium cynomolgi, Hepatocyte, P. cynomolgi in simian primary hepatocytes (SH), mean ± SEM of triplicate experiments, read-out: EC50 against liver-stage parasites): 2720 ± 340 nM; SI (selectivity index) ([8]; hepatocyte CC50/EC50, P. cynomolgi (SH)): 12; Size reduction at 10 μM (%) ([8]; parasite (schizont) size, 10 μM, P. cynomolgi (SH)): 70%
3 | O=C1C(O)=C([C@H]2CC[C@H](c3ccc(Cl)cc3)CC2)C(=O)c2ccccc21 [Atovaquone, reference compound] | 0.001 µM | 0.003 µM |  | > 15.6 µM | 
4 | CC(C)(C)Nc1nc2cc(-c3ccc(CO)cc3)sc2c(=O)[nH]1 [Metabolite 7, 2-(tert-Butylamino)-6-(4-(hydroxymethyl)phenyl)thieno[3,2-d]pyrimidin-4(3H)-one] | 0.4 µM | 1 µM | 264 °C | 25 µM | 
5 | COc1cccc2c1C(=O)c1c(O)c3c(c(O)c1C2=O)C[C@@](O)(C(=O)CO)C[C@@H]3O[C@H]1C[C@H](N)[C@H](O)[C@H](C)O1 [Doxorubicin, reference compound] |  |  |  | 0.2 µM | 

Continued, in another order:

Row | EC50 [2] | EC50 [4] | melting point | Structure (SMILES) | CC50 at 72 h [1] | also measured
6 |  |  | > 300 °C | CC(C)(C)Nc1nc2cc(-c3ccc(C(=O)O)cc3)sc2c(=O)[nH]1 (as salt: hydrochloride) [Metabolite 10, 4-(2-(tert-Butylamino)-4-oxo-3,4-dihydrothieno[3,2-d]pyrimidin-6-yl)benzoic acid] |  | 
7 | > 10 µM | > 10 µM |  | CC(C)(C)Nc1nc2cc(-c3ccc(C(=O)O)cc3)sc2c(=O)[nH]1 [Metabolite 10, 4-(2-(tert-Butylamino)-4-oxo-3,4-dihydrothieno[3,2-d]pyrimidin-6-yl)benzoic acid] | > 10 µM | 
8 | 3.1 µM |  | 296 °C | CC(C)(C)Nc1nc2cc(-c3ccc(C=O)cc3)sc2c(=O)[nH]1 [Metabolite 8, 4-(2-(tert-Butylamino)-4-oxo-3,4-dihydrothieno[3,2-d]pyrimidin-6-yl)benzaldehyde] | 25.3 µM | 
